Experimental data published in patent US11400089B2, “Multikinase inhibitors and uses in reproductive and digestive tract fibrosis” (AIVIVA BIOPHARMA, INC., priority 2017, dated 2022).

Key:
[1] = test system: testosterone and phenylephrine induced benign prostate hyperplasia; experiment: testosterone and phenylephrine induced benign prostate hyperplasia in rats (Example 3); type: in vivo, Male Wistar rats; conditions: for inhibition of cellular proliferation in testosterone/phenylephrine induced benign prostate hyperplasia model: 1% intra-prostate days 1 and 18, rat; for epithelial (glandular) hyperplasia score, dorsolateral prostate, representative image / epithelial (glandular) hyperplasia score, ventral prostate, representative image: TE+PE induced rats, intra-prostate 0.4 ml days 1 and 18, day 32, induced vehicle score=4; for epithelial (glandular) hyperplasia score, dorsolateral prostate, representative image: grade 0 (not present) to 5 (severe), FIG. 4; for epithelial (glandular) hyperplasia score, ventral prostate, representative image: grade 0 to 5, FIG. 5
Description: This study was conducted to determine the effects of multikinase inhibitors and vehicle on testosterone and phenylephrine induced benign prostate hyperplasia in rats. Male Wistar rats were induced with testosterone (2 mg/kg) plus phenylephrine (5 mg/kg) administered daily by subcutaneous injection on days 5 through 32. Vehicle or test compounds (all 1% w/v), nintedanib, sunitinib or lenvatinib and doxazosin mesylate, were administered by intra-prostate injection (0.4 ml) in dorsolateral and ventral lobes on days 1 and 18. Animals were euthanized on day 32.
At necropsy, the ventral and dorsolateral lobes of the prostate were separated and then cut into halves. The left halves were fixed in 10% neutral buffered formalin, sectioned, and stained with Hematoxylin and Eosin (H&E). Histological changes in these sections were scored. Epithelial hyperplasia was recognized as an increase in epithelial cells within normal-appearing gland profiles, primarily reflected by stratification of epithelial cells and increased presence of epithelial tufting and papillary projections. A severity grade of 0 (not present) through 5 (severe) was assigned to each sample.

[2] = test system: suture induced ocular fibrosis; experiment: suture induced ocular fibrosis model in rabbits (Example 4); type: in vivo; conditions: for areas of neovascularization on the corneal surface: 0.3% topical 35 μL/eye three times daily for 10 days, FIG. 8; for fibroplasia and/or collagen density (histological staining) / alpha SMA staining (immunohistochemical analysis): 0.3% topical three times daily for 10 days, FIG. 9; for fibroplasia and/or collagen density (histological staining): Day 11; for alpha SMA staining (immunohistochemical analysis): relative to vehicle
Description: A study was conducted to determine the potential beneficial effects of topical administration of test compounds and vehicle in a suture induced ocular fibrosis model in rabbits. Sutures were placed intrastromally, under a microscope, in the cornea of rabbits. In each eye, one 9.0 silk suture was placed, in a vertical position, temporal to the center of the cornea and a second suture was placed nasal to the corneal center. Each suture had two stromal incursions approximately 2 mm from the limbus. Test compounds having a certain spectrum of multikinase inhibition activities or vehicle were topically instilled (35 μL/eye) in the eyes three times daily for 10 days following the day of surgery. The treatment groups include vehicle, axitinib (0.3%), nintedanib (0.3%), pirfenidone (1%), riociguat (0.3%), sorafenib (0.3%) and lenvatinib (0.3%). Six left eyes were used per treatment group.
During the in-life phase, gross ocular observations of very slight to moderate conjunctival congestion and swelling were similar among groups, including the vehicle control. The animals were sacrificed on Day 11 and eyes enucleated and dissected for histopathological evaluation.

[3] = test system: full-thickness dermal wounds; experiment: full-thickness dermal wounds in rabbit ear, histopathology (Example 5); type: in vivo, New Zealand White rabbits; design: average total score of test wounds lower than untreated/control wounds by / Neovascularization (histopathology score, treated mean) / Fibrosis/Collagen (histopathology score, treated mean) / Reepithelialization (histopathology score, treated mean) / Total Score (histopathology, treated mean): scale not given here; conditions: for Fibrosis/Collagen (histopathology score, treated mean) / Neovascularization (histopathology score, treated mean) / Reepithelialization (histopathology score, treated mean) / Total Score (histopathology, treated mean): 1% intradermal dosing days 15 and 29, Day 42; for average total score of test wounds lower than untreated/control wounds by: difference treated vs control
Description: Test compounds were examined in full-thickness dermal wounds in rabbits. Seven male New Zealand White rabbits, ranging in body weight from 3.03 to 3.40 kg were used in this study. Four wounds were placed on the ventral surface of both ears using an 8 mm skin punch biopsy. Axitinib (1.0%), nintedanib (1.0%), lenvatinib (1.0%), sorafenib (1.0%) and sunitinib (1.0%) were administered by intradermal or intralesional injection on days 15 and 29 following surgery. Animals were euthanized on Day 42 and trauma sites were harvested and divided in half. One half was preserved in formalin for histological examination and the other half frozen for TGF beta analysis. Tissue H&E staining was evaluated semi-quantitatively for inflammation and neovascularization. Tissue fibrosis and collagen organization were evaluated by Mason's trichrome staining. Scores for four intradermal sites receiving test articles were averaged for each rabbit. Most scar tissues were composed of neovascularization, fibroblast hyperplasia, collagen disorganization and re-epithelialization.

TGF beta mRNA expression = TGF beta mRNA expression in rabbit dermal wound model (Example 5); type: in vivo, New Zealand White rabbits; conditions: 1% intradermal days 15 and 29; Day 42; FIG. 10
Description: Test compounds were examined in full-thickness dermal wounds in rabbits. Seven male New Zealand White rabbits, ranging in body weight from 3.03 to 3.40 kg were used in this study. Four wounds were placed on the ventral surface of both ears using an 8 mm skin punch biopsy. Axitinib (1.0%), nintedanib (1.0%), lenvatinib (1.0%), sorafenib (1.0%) and sunitinib (1.0%) were administered by intradermal or intralesional injection on days 15 and 29 following surgery. Animals were euthanized on Day 42 and trauma sites were harvested and divided in half. One half was preserved in formalin for histological examination and the other half frozen for TGF beta analysis.
TGF beta mRNA expression in treated trauma samples was compared to expression in untreated samples. In general, TGF beta expression in treated samples was lower relative to untreated trauma samples.

[4] = test system: TGF beta 1 protein levels; experiment: TGF beta 1 protein level (ELISA) in pig linear incision wound model (Example 6); type: in vivo, Gottingen minipigs; conditions: 16 mg per wound site intradermal; Days 4, 7 and 9; FIG. 11
Description: Full-thickness linear incision wounds were created in Gottingen minipigs on Day 1. 10 wounds approximately 3 cm in length and spaced at least 5 cm apart were created on the dorsal surface of the animals, perpendicular to the spine. Test agents included nintedanib (2%), lenvatinib (2%), sorafenib (1%), axitinib (2%) and vehicle control. Test agents were administered by intradermal injection immediately after wound creation. The dose of nintedanib, lenvatinib, sorafenib, or axitinib was 16 mg per wound site. Three minipigs were dosed in a similar manner. One minipig was sacrificed on Day 4, one on Day 7, and one on Day 9.
At the time of sacrifice, two dermal punch biopsies (4 mm) from each side of the wound sites were collected. Two biopsies were flash frozen in liquid nitrogen and stored at −80° C. prior to processing by protein extraction and ELISA (enzyme-linked immunosorbent assay) analysis. TGF beta protein levels were measured on Days 4, 7 and 9.

[5] = test system: LL37-induced inflammation; experiment: intradermal LL37 injection-induced inflammation model in mice, histopathology (Example 7); type: in vivo; conditions: single intradermal injection 1.6 mg, FIG. 13
Description: (§1) In our study, mice were injected subcutaneously with 40 μL of LL-37 (3.3 mg/mL) to induce inflammatory reactions. Immediately following the LL-37 injection, axitinib, nintedanib, and lenvatinib were individually administered as a single intradermal injection (1.6 mg). LL-37 injection was repeated every 12 hours for a total of 4 injections. Endotoxin-free water and dexamethasone (3 mg/kg by intraperitoneal injection, twice), respectively, were used as negative and positive control groups.
At 48 hours after the initial LL-37 injection, the dorsal skin was photographed, and the severity of skin lesions were scored for redness and measured for areas of involvement.
The tissue samples were analyzed for inflammation characteristics. Histopathology endpoints included inflammation, and CD4+ and CD8+ T-lymphocyte immunostaining. For inflammation scores, tissues were examined histologically and scored for inflammatory cell infiltrate.

TGFb-1 mRNA expression = experiment: TGFb1 mRNA expression in LL37-induced mice (Example 7); type: in vivo; conditions: single intradermal injection 1.6 mg, FIG. 12
Description: as §1
The TGFb1 mRNA expression in mice induced with LL37 and treated with lenvatinib was 79% of that challenged with LL37 alone (i.e., without treatment).

[6] = 1% intradermal, rabbit ear wound

| SMILES | inhibition of cellular proliferation in testosterone/phenylephrine induced benign prostate hyperplasia model [1] | epithelial (glandular) hyperplasia score, dorsolateral prostate, representative image [1] | epithelial (glandular) hyperplasia score, ventral prostate, representative image [1] | areas of neovascularization on the corneal surface [2] | fibroplasia and/or collagen density (histological staining) [2] | alpha SMA staining (immunohistochemical analysis) [2] | Fibrosis/Collagen (histopathology score, treated mean) ([3]; rabbit ear wound) | Neovascularization (histopathology score, treated mean) ([3]; rabbit ear wound) | Reepithelialization (histopathology score, treated mean) ([3]; rabbit ear wound) | Total Score (histopathology, treated mean) ([3]; rabbit ear wound) | average total score of test wounds lower than untreated/control wounds by ([3]; 1% intradermal) | angiogenesis and fibrosis at treated trauma sites (histopathology summary) [3, 6] | fibrosis compared with control wound sites [3, 6] | mean folds of TGF beta mRNA expression vs untreated trauma samples (TGF beta mRNA expression) | TGF beta 1 protein levels in wound [4] | inflammation scores (inflammatory cell infiltrate) [5] | TGFb1 mRNA expression relative to LL37 alone (without treatment) (TGFb-1 mRNA expression) | TGFb-1 mRNA expression among all treatment groups (TGFb-1 mRNA expression) | neovascularization compared with untreated wounds [3, 6] | scar formation overall compared with control sites [3, 6] |
| --- | --- | --- | --- | --- | --- | --- | --- | --- | --- | --- | --- | --- | --- | --- | --- | --- | --- | --- | --- | --- |
| COc1cc2nccc(Oc3ccc(NC(=O)NC4CC4)c(Cl)c3)c2cc1C(N)=O [lenvatinib] | effective inhibitors of cellular proliferation | 2 | 3 | efficacious in reducing the areas of neovascularization | significantly reduced fibroplasia and/or collagen density | significantly reduced alpha SMA staining | 2.5 | 2 | 0 | 4.5 | 0.5 | decreased angiogenesis and fibrosis | decreased fibrosis compared to control wound sites | lower than the expression level in untreated trauma samples | time-dependent inhibition of TGF beta 1 protein levels | prominent reductions in the scores of inflammation | 79% | lowest TGFb-1 mRNA expression | – | – |
| COC(=O)c1ccc2c(c1)NC(=O)/C2=C(\Nc1ccc(N(C)C(=O)CN2CCN(C)CC2)cc1)c1ccccc1 [nintedanib] | effective inhibitors of cellular proliferation | 3 | 3 | efficacious in reducing the areas of neovascularization | significantly reduced fibroplasia and/or collagen density | significantly reduced alpha SMA staining | 3 | 1 | 0.5 | 4.5 | 1.5 | decreased angiogenesis and fibrosis | about the same fibrosis as untreated wounds | lower than the expression level in untreated trauma samples | time-dependent inhibition of TGF beta 1 protein levels | prominent reductions in the scores of inflammation | – | – | much less neovascularization | less scar formation compared with the control sites |
